Publication PMC5599463, “PK/PD studies on non-selective PDE inhibitors in rats using cAMP as a marker of pharmacological response” (Naunyn-Schmiedeberg's Archives of Pharmacology, 2017)
Like-named read-outs stand apart in the source and are kept apart here. Each block holds one compound with its values, some of them ahead of it.

Tests used:
cAMP plasma levels = settings: cited from earlier work
[1] = system: plasma cAMP concentrations; design: method as in Cheng et al. [1997]; settings: ref Cheng et al. [1997], cited from earlier work; for cAMP levels in mice: 10 times higher dose than that of the PDE4 inhibitors (10 mg kg^−1 p.o.); for plasma cAMP concentrations in mice: 10 mg kg^−1 p.o.
[2] = system: plasma cAMP concentrations; assay: Plasma cAMP in rats with endotoxemia after i.p. theophylline (own unpublished data); type: in vivo; settings: i.p. 50 mg kg^−1, 0.5 h after administration
TNF-α plasma levels = assay: Plasma TNF-α levels in endotoxemic rats (ELISA); type: in vivo, Male Wistar rats; settings: both doses (40 and 80 mg kg^−1 i.v.) with LPS, 90 min, p < 0.05
Method: (§1) All compounds were directly dissolved in 0.9% sterile saline and used within 1 day of preparation. The animals were divided into five groups (n = 3–4). […] All injections (1 mL kg^−1) were given to the tail vein of the rat under isoflurane anaesthesia. […] Subsequently, samples were kept on ice and centrifuged for 10 min at 3000×g at 4 °C (EBA 12 R, Hettich, Germany). The individual plasma samples were harvested and stored at −80 °C until analysis.
Plasma TNF-α levels were measured by rat TNF-α Quantikine ELISA kit (R&D Systems, Minneapolis, MN, USA) according to the manufacturer’s protocol. The limit of quantification was 12.5 pg mL^−1.
(§2) The peak cAMP and TNF-α plasma levels following administration of LPS alone or LPS simultaneously with both doses of each compound were compared using a one-way ANOVA and Tukey’s HSD post hoc test. The normality of data distribution was checked by Shapiro–Wilk test. The relationship between decimal logarithms of peak cAMP and TNF-α plasma concentrations was verified by least squares linear regression analysis. All statistical analyses were performed using Statistica v. 12 (StatSoft Inc., USA). The significance level p was set at 0.05.

[3] = Pharmacokinetics after i.v. administration to endotoxemic rats (compartmental modelling); type: in vivo, Male Wistar rats
Method: as §1
Then, the samples were extracted with 3 mL of dichloromethane for 20 min on a shaker (VXR Vibrax, IKA, Germany). Subsequently, all tubes were centrifuged (2000×g, 15 min) and organic layers were transferred to new glass tubes and evaporated under gentle stream of nitrogen at 37 °C. Dry residues were dissolved in 100 μL of mobile phase and placed in the autosampler vials. The volume of injection was set to 50 μL. The HPLC system (LaChrom Elite, Merck-Hitachi, Darmstadt, Germany) consisted of an L-2130 pump, an L-2200 autosampler, an L-2450 diode array detector and an L-2350 column oven. EZChrome Elite v. 3.2 (Merck-Hitachi) software was used for data acquisition. The analysis was performed on a LiChrospher 100 RP-18 column (250 mm × 4 mm) with a particle size of 5 μm protected with a LiChroCART (4 mm × 4 mm) guard column (Merck, Germany). The mobile phase consisted of dioxan, acetonitrile and aqueous solution of acetic acid (pH = 3.0) mixed at the ratio of 6.5:6.5:87 (v/v/v), respectively, and pumped at a flow rate of 1.2 mL min^−1. Analytical wavelength was set to 275 nm and temperature of separation was 35 °C.
To this end, one- or two-compartment pharmacokinetic models with linear or Michaelis–Menten type saturable elimination from the central compartment were tested. Both dose levels in each case were simultaneously fitted to obtain a single set of parameters. The final pharmacokinetic models for PTX and (±)-LSF were selected on the basis of visual inspection of the fitting, examination of residuals, parameter precision, Akaike Information Criteria (AIC), Bayesian Information Criteria (BIC) and analysis of the correlation matrix. Pharmacokinetic analysis was performed using Phoenix WinNonlin v. 6.3 (Pharsight Corp, Certara, St. Louis, MO, USA).

[4] = system: cAMP levels in rat plasma; assay: PK/PD (IDR model II) of plasma cAMP in LPS-challenged rats; type: in vivo, Male Wistar rats; settings: for cAMP levels in rat plasma after administration: 40 or 80 mg kg^−1 i.v. with LPS; for IC50: Rattus norvegicus
Method: as §1
The levels of cAMP in rat plasma were measured using the same HPLC system and a fluorescence detector (model FL-2485). The analysis was performed after incubation of plasma with 2-chloroacetaldehyde as a derivatization reagent in elevated temperature to form the fluorescing derivative—1,N^6-etheno-cAMP. To 100 μL of plasma (or plasma spiked with water standard solution of cAMP), 15 μL of 2 M 2-chloroacetaldehyde solution and 50 μL of 0.5 M acetate buffer (pH = 4.5) were added to a snap-cap tubes. Samples were then vortex-mixed (Reax top, Heidolph, Germany) for 20 s and incubated at 80 °C for 20 min. Thereafter, the reaction mixture was cooled on ice, the samples were centrifuged (3000×g, 10 min) and 100 μL of supernatants was placed in the autosampler vials. The volume of injection was 50 μL. The separation was performed at isocratic conditions at 35 °C using the mobile phase composed of 20 mM citric-phosphate buffer (pH = 3.2) and methanol mixed at the ratio of 91:9 (v/v) and pumped at a flow rate of 1.3 mL min^−1. The excitation and emission wavelengths were set to 280 and 420 nm, respectively. In these conditions, the retention time of 1,N^6-etheno-cAMP was 6 min.
Changes in plasma cAMP concentrations (CcAMP) over time following each compound administration may be described by the following equation:
1 dCcAMP/dt=kin−kout⋅It⋅CcAMP
3 It=1−Imax⋅Cp^γ/IC50^γ+Cp^γ
The second approach assumes that both compounds under investigation act with different potencies. Based on the results of the in vitro study, an additive interaction model was used (Eq. 4):
I max and γ in Eqs. (3) and (4) were fixed to 1 during fitting procedure.
as §2

[5] = molecular target: T1, human recombinant PDE7A (hrPDE7A) (Homo sapiens, UniProt Q13946); assay: PDE-Glo Phosphodiesterase Assay, hrPDE7A inhibition; type: biochemical; settings: for IC50: hrPDE7A, non-linear regression, in vitro
T1 construct: purchased SignalChem, Richmond, Canada
Method: (§3) Briefly, 1,5 μl of 1× PDE-Glo reaction buffer containing 10 mU of purified hrPDE4B or hrPDE7A (SignalChem, Richmond, Canada) was pipetted into 384-well plate wells (Thermo Scientific, USA). The tested compounds were dissolved in DMSO, and a serial dilution of the inhibitors was performed using 1× PDE-Glo reaction buffer. Then, 1 μL of diluted inhibitors and 2.5 μL of cAMP solution were added to each well. After 10 min of incubation in 30 °C, 2.5 μL of PDE-Glo™ Termination Buffer and 2.5 μL of PDE-Glo™ Detection Solution were added and the plate was incubated for 20 min at room temperature. Finally, 10 μL of Kinase-Glo® Reagent was pipetted to each well and after 10 min of incubation, the luminescence was measured using a microplate luminometer (POLARstar Omega, BMG LABTECH, Ortenberg, Germany). All data points are the average of two determinations.

[6] = system: plasma cAMP concentration; design: method as in Tanahashi et al. [1999]; settings: ref Tanahashi et al. [1999]; cited from earlier work
[7] = molecular target: T2, human recombinant PDE4B (hrPDE4B) (Homo sapiens, UniProt Q07343); assay: PDE-Glo Phosphodiesterase Assay, hrPDE4B inhibition; type: biochemical; settings: non-linear regression, in vitro
T2 construct: purchased SignalChem, Richmond, Canada
Method: as §3, with “The” for “Briefly, 1,5 μl of 1× PDE-Glo reaction buffer containing 10 mU of purified hrPDE4B or hrPDE7A (SignalChem, Richmond, Canada) was pipetted into 384-well plate wells (Thermo Scientific, USA). The”

[8] = design: method as in Wyska et al. [2007]; settings: mice; ref Wyska et al. [2007]; cited from earlier work
[9] = system: IL-12-induced murine T helper 1 (Th1) differentiation; design: method as in Bright et al. [1998]; settings: dose-dependent manner; ref Bright et al. [1998]; cited from earlier work
[10] = Interaction indirect response model II, rats challenged with LPS, i.v., read-out: IC50 (plasma concentration producing 50% of maximum inhibition of cAMP kout), final estimate (CV%)
[11] = interaction IDR model II, endotoxemic rats, read-out: IC50 calculated using PK/PD model after conversion to

T2 sequence (Q07343 whole entry): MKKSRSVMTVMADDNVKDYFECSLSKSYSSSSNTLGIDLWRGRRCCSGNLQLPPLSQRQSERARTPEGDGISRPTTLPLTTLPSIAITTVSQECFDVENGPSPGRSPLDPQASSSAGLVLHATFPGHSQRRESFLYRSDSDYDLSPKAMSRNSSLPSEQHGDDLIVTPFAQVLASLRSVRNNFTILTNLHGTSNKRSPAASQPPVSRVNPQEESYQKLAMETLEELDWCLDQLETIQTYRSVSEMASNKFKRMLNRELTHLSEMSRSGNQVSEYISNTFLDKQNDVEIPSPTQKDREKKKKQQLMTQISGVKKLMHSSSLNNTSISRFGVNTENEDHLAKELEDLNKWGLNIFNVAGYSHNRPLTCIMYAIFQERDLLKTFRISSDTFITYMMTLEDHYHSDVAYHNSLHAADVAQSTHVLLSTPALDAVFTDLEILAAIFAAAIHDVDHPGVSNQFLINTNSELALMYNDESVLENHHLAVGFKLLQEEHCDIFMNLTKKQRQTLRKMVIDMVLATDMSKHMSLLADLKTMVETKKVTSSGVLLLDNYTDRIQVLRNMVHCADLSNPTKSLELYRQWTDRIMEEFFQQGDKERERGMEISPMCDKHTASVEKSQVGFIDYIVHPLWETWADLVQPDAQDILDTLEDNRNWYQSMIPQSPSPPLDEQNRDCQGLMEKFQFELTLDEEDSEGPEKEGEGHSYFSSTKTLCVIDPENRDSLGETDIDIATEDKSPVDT
T1 sequence (Q13946 whole entry): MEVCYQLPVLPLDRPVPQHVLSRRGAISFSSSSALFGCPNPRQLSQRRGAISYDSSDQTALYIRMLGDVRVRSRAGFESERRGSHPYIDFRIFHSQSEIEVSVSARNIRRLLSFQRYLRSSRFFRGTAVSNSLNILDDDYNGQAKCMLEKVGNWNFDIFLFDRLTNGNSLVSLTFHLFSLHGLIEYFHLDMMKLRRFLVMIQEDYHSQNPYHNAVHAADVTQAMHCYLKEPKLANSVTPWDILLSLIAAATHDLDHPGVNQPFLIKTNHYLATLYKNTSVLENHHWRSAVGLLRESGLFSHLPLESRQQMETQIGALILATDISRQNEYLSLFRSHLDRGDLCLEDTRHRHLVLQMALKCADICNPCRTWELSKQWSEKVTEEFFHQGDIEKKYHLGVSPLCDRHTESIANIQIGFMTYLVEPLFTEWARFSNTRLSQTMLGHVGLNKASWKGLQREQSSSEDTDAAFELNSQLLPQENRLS

SMILES: COc1ccc2[nH]cc(CCNC(C)=O)c2c1 [melatonin]
cAMP plasma levels in humans (cAMP plasma levels; administered orally, 1 h following administration, ref Zhdanova and Raz [1999]): significantly augmented

SMILES: CC(=O)Nc1ccc(-c2c[nH]c(=O)cn2)cc1 [SKF-94,120]
cAMP levels in mice [1]: failed to alter cAMP levels significantly

SMILES: Cn1c(=O)c2[nH]cnc2n(C)c1=O [theophylline]
plasma levels of cAMP ([1]; mice, orally 100 mg kg^−1, 20 min post-dose): 296.9 pmol/mL
plasma concentrations of cAMP [2]: 228.22 pmol/mL

SMILES: OCCN(CCO)c1nc(N2CCCCC2)c2nc(N(CCO)CCO)nc(N3CCCCC3)c2n1 [dipyridamole]
cAMP levels in mice [1]: failed to alter cAMP levels significantly

IC50 [4, 10]: 4.48 µg/mL
IC50 [5]: > 500 µM
activity as inhibitor of hrPDE7A ([5]; in vitro assay): ineffective
SMILES: CC(=O)CCCCn1c(=O)c2c(ncn2C)n(C)c1=O [PTX, 1-(5-oxohexyl)-3,7-dimethylpurine-2,6-dione]
TNF-α concentrations in plasma of endotoxemic rats (TNF-α plasma levels): significant decrease
cAMP plasma levels elevation compared to the placebo group (cAMP plasma levels; healthy subjects, i.v. infusion 300 mg in 1 h, measured 1 h from beginning of infusion, ref Kruuse et al. [2000]): approximately 50%
half-life ([3]; male, Wistar, rat, plasma, iv, rats, i.v., read-out: elimination half-life (t0.5)): 16.4 min
k el ([3]; male, Wistar, rat, plasma, iv, read-out: ke (rate constant for disappearance of parent compound), final estimate (CV%) (converted)): 0.000933 s⁻¹
cAMP levels in rat plasma after administration [4]: increase in cAMP levels in rat plasma in a dose-dependent manner
IC50 [4, 11]: 16.1 µM

SMILES: CN(C(=O)CCCOc1ccc2[nH]c(=O)ccc2c1)C1CCCCC1 [cilostamide]
plasma cAMP concentration in dogs [6]: no

SMILES: COc1ccc(C2CNC(=O)C2)cc1OC1CCCC1 (centres unmarked) [rolipram]
plasma cAMP concentrations in mice [1]: increased plasma cAMP concentrations
plasma cAMP concentration in dogs [6]: elevated plasma cAMP concentration in dogs in a dose-dependent manner

IC50 [7]: 52.5 µM
IC50 [5]: 328 µM
SMILES: C[C@H](O)CCCCn1c(=O)c2c(ncn2C)n(C)c1=O [S-(+)-LSF]

IC50 [7]: 46.6 µM
IC50 [5]: 77.7 µM
SMILES: CC(C)Cn1c(=O)n(C)c(=O)c2[nH]cnc21 [IBMX, 1-methyl-3-(2-methylpropyl)-7H–purine-2,6-dione]

SMILES: CCCSc1nc(N[C@@H]2C[C@H]2c2ccc(F)c(F)c2)c2nnn([C@@H]3C[C@H](OCCO)[C@@H](O)[C@H]3O)c2n1 [ticagrelor]
levels of cAMP in treated patients (cAMP plasma levels; patients, ref Li et al. [2017]): Elevated levels of cAMP

lower in vivo IC50 value compared to PTX ([4]; PK/PD model, rats): approximately 20%
IC50 [4, 10]: 3.43 µg/mL
SMILES: CC(O)CCCCn1c(=O)c2c(ncn2C)n(C)c1=O (racemic) [(±)-LSF, (±)-1-(5-hydroxyhexyl)-3,7-dimethylpurine-2,6-dione]
TNF-α concentrations in plasma of endotoxemic rats (TNF-α plasma levels): significant decrease
VLSF (volume of (±)-LSF compartment), final estimate (CV%) ([3]; (±)-LSF parent drug, i.v. 40 and 80 mg kg^−1, endotoxemic rats, one-compartment Michaelis-Menten model): 1.22 (3.44) L kg^−1
Km ([3]; male, Wistar, rat, plasma, iv, (±)-LSF parent drug, i.v., endotoxemic rats, read-out: Km (drug concentration at which elimination rate is half-maximal), final estimate (CV%)): 6.02 µg/mL
cAMP levels in rat plasma after administration [4]: increase in cAMP levels in rat plasma in a dose-dependent manner
IC50 [4, 11]: 12.2 µM
peak cAMP level in comparison with the group receiving LPS only ([4]; dose of 40 mg kg^−1 i.v. with LPS 1 mg kg^−1, p > 0.05): did not increase

IC50 [7]: 49.1 µM
IC50 [5]: 266 µM
SMILES: C[C@@H](O)CCCCn1c(=O)c2c(ncn2C)n(C)c1=O [R-(-)-LSF]
Km [8]: 15.08 mg/L
Vmax [8]: 2.33 mg/min/kg
inhibition of IL-12-induced murine Th1 differentiation [9]: inhibited

SMILES: COc1ccc(C2CNC(=O)NC2)cc1O[C@H]1C[C@@H]2CC[C@H]1C2 [CP-80,633]
plasma cAMP concentrations in mice [1]: increased plasma cAMP concentrations

SMILES: CCCOc1ccccc1-c1nc2nn[nH]c2c(=O)[nH]1 [zaprinast]
cAMP levels in mice [1]: failed to alter cAMP levels significantly

SMILES: CCOC(=O)C1=C[C@]2(CC)CCCN3CCc4c(n1c1ccccc41)[C@@H]32 [vinpocetine]
cAMP levels in mice [1]: failed to alter cAMP levels significantly
